This passage reports MIC results from patent publication US7223759B2, “Antibacterial 3,5-diaminopiperidine-substituted aromatic and heteroaromatic compounds” (Anadys Pharmaceuticals, Inc., priority 2003, dated 2007).

The structures appear in SMILES notation. Some results are limits rather than exact numbers.

The test system of one assay is Escherichia coli (ATCC25922) or Staphylococcus aureus (ATCC25923). The assay is described as follows: Antibacterial MIC, microdilution method in Mueller-Hinton medium. In kind it is cell-based. The following applies: Escherichia coli, 18 h, MIC in E. coli or S. aureus; two-fold serial dilutions 64 to 0.5 μg/ml in duplicate; 18 hours of incubation at 35° C.; read-out: Potency (MIC). The method in brief: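 Two-fold serial dilutions from 64 to 0.5 μg/ml, in duplicate, by broth microdilution in Mueller-Hinton medium (NCCLS M7-A5). MIC taken as the lowest concentration preventing visible growth after 18 h at 35° C.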
(In broth dilution the organism is exposed to a series of concentrations in liquid medium.)
With `N[C@@H]1C[C@H](N)CN(c2nc(Nc3ccc(SC(F)(F)F)cc3)nc(N3C[C@H](N)C[C@H](N)C3)n2)C1` [N-(4-trifluoromethylsulfanyl-phenyl)-4,6-Bis-((3R,5S)-3,5-diamino-piperidin-1-yl)-[1,3,5]triazine-2-amine], the MIC was less than 64 µg/mL.
Still for that read-out and setting: in the case of `CCN(C)CCNC(=O)c1ccc(NC(=O)CC(=O)c2ccc(Nc3nc(N4CCCCC4)nc(N4CCCCC4)n3)cc2)cc1.Cl` [N-(4-{2-[4-(2-diethylamino-ethylcarbamoyl)-phhenylcxarbamoyl]-acetyl}-phenyl)-4,6-Bis-((3R,5S)-3,5-diamino-piperidin-1-yl)-[1,3,5]triazine-2-amine] it was more than 64 µg/mL; in that of `COc1ccc(Nc2ccc(NC(=O)CC(=O)c3ccc(Nc4nc(N5C[C@H](N)C[C@H](N)C5)nc(N5C[C@H](N)C[C@H](N)C5)n4)cc3)cc2)cc1` [N-(4-{2-[4-(4-methoxy-phenylamino)-phenylcarbamoyl]-acetyl}-phenyl)-4,6-Bis-((3R,5S)-3,5-diamino-piperidin-1-yl)-[1,3,5]triazine-2-amine], less than 16 µg/mL.
With `Cl.O=C(CC(=O)N1CCC(n2c(=O)[nH]c3ccccc32)CC1)c1ccc(Nc2nc(N3CCCCC3)nc(N3CCCCC3)n2)cc1` [N-(4-{3-oxo-3-[4-(2-oxo-2,3-dihydro-benzoimidazol-1-yl)-piperidin-1-yl]-propionly}-phenyl)-4,6-Bis-((3R,5S)-3,5-diamino-piperidin-1-yl)-[1,3,5]triazine-2-amine], the minimal inhibitory concentration (MIC) was more than 64 µg/mL.
As to `COc1ccc(NC(C)=O)cc1Nc1nc(N2C[C@H](N)C[C@H](N)C2)nc(N2C[C@H](N)C[C@H](N)C2)n1` [N-(5-acetylamino-2-methoxy-phenyl)-4,6-Bis-((3R,5S)-3,5-diamino-piperidin-1-yl)-[1,3,5]triazine-2-amine], the minimal inhibitory concentration (MIC) was more than 64 µg/mL.
With `Cl.NC(=O)c1[nH]cnc1Nc1nc(N2C[C@H](N)C[C@H](N)C2)nc(N2C[C@H](N)C[C@H](N)C2)n1` [N-(5-carbamoyl-1H-imidazol-4-yl)-4,6-Bis-((3R,5S)-3,5-diamino-piperidin-1-yl)-[1,3,5]triazine-2-amine], the minimum inhibitory concentration (MIC) was more than 64 µg/mL.
Consider `Cl.NC(=O)c1ccc(Nc2nc(N3C[C@H](N)C[C@H](N)C3)nc(N3C[C@H](N)C[C@H](N)C3)n2)nc1` [N-(5-carbamoyl-pyridin-2-yl)-4,6-Bis-((3R,5S)-3,5-diamino-piperidin-1-yl)-[1,3,5]triazine-2-amine], for which the minimum inhibitory concentration (MIC) was more than 64 µg/mL.
Still for that read-out and setting: in the case of `Cc1ccc(S(=O)(=O)N(C)C)cc1Nc1nc(N2C[C@H](N)C[C@H](N)C2)nc(N2C[C@H](N)C[C@H](N)C2)n1` [N-(5-dimethylsulfamoyl-2-methyl-phenyl)-4,6-Bis-((3R,5S)-3,5-diamino-piperidin-1-yl)-[1,3,5]triazine-2-amine] it was more than 64 µg/mL; in that of `Cc1cc(Nc2nc(N3C[C@H](N)C[C@H](N)C3)nc(N3C[C@H](N)C[C@H](N)C3)n2)no1.Cl` [N-(5-methyl-isoxazol-3-yl)-4,6-Bis-((3R,5S)-3,5-diamino-piperidin-1-yl)-[1,3,5]triazine-2-amine], more than 64 µg/mL; in that of `CSc1nnc(Nc2nc(N3C[C@H](N)C[C@H](N)C3)nc(N3C[C@H](N)C[C@H](N)C3)n2)s1.Cl` [N-(5-methylsulfanyl-[1,3,4]thiadiazol-2-yl)-4,6-Bis-((3R,5S)-3,5-diamino-piperidin-1-yl)-[1,3,5]triazine-2-amine], more than 64 µg/mL.
As to `Cl.Oc1cccc2ccc(Nc3nc(N4CCCCC4)nc(N4CCCCC4)n3)nc12` [N-(8-hydroxy-quinolin-2-yl)-4,6-Bis-((3R,5S)-3,5-diamino-piperidin-1-yl)-[1,3,5]triazine-2-ammine], the minimal inhibitory concentration (MIC) is more than 64 µg/mL.
Regarding `N[C@@H]1C[C@H](N)CN(c2nc(Nc3ccc(O)c4ncccc34)nc(N3C[C@H](N)C[C@H](N)C3)n2)C1` [N-(8-hydroxy-quinolin-5-yl)-4,6-Bis-((3R,5S)-3,5-diamino-piperidin-1-yl)-[1,3,5]triazine-2-amine], the MIC is less than 64 µg/mL.

Still in this assay, the particulars now being: Escherichia coli, 18 h, read-out: Potency (MIC).
As to `C=Cc1ccc(Nc2nc(N3C[C@H](N)C[C@H](N)C3)nc(N3C[C@H](N)C[C@H](N)C3)n2)cc1` [N-(4-vinyl-phenyl)-4,6-Bis-((3R,5S)-3,5-diamino-piperidin-1-yl)-[1,3,5]triazine-2-amine], the MIC is less than 64 µg/mL.
Consider `N[C@@H]1C[C@H](N)CN(c2nc(Nc3ccc(C(=O)CC(=O)Nc4ccc(S(=O)(=O)Nc5ccc6cn[nH]c6c5)cc4)cc3)nc(N3C[C@H](N)C[C@H](N)C3)n2)C1` [N-(4-{2-[4-(1H-indazol-6-ylsulfamoyl)-phenylcarbamoyl]-acetyl}-phenyl)-4,6-Bis-((3R,5S)-3,5-diamino-piperidin-1-yl)-[1,3,5]triazine-2-amine], for which the MIC was less than 64 µg/mL.
On the same count and under the same terms, the value for `N[C@@H]1C[C@H](N)CN(c2nc(Nc3ccc(C(=O)CC(=O)NCc4ccc5c(c4)OCO5)cc3)nc(N3C[C@H](N)C[C@H](N)C3)n2)C1` [N-(4-{2-[(benzo[1,3]dioxol-5-ylmethyl)-carbamoyl]-acetyl}-phenyl)-4,6-Bis-((3R,5S)-3,5-diamino-piperidin-1-yl)-[1,3,5]triazine-2-amine] was more than 64 µg/mL; that for `Cc1ccc(S(=O)(=O)N(Cc2ccccc2)c2ccc(NC(=O)c3ccc(Nc4nc(N5C[C@H](N)C[C@H](N)C5)nc(N5C[C@H](N)C[C@H](N)C5)n4)cc3O)cc2O)cc1` [N-(4-{4-[benzyl-(toluene-4-sulfonyl)-amino]-3-hydroxy-phenylcarbamoyl)-3-hydroxy-phenyl)-4,6-Bis-((3R,5S)-3,5-diamino-piperidin-1-yl)-[1,3,5]triazine-2-amine] was less than 16 µg/mL.
The same measure, in the same setting: the value for `Nc1cncc(Nc2nc(N3C[C@H](N)C[C@H](N)C3)nc(N3C[C@H](N)C[C@H](N)C3)n2)c1` [N-(5-amino-pyridin-3-yl)-4,6-Bis-((3R,5S)-3,5-diamino-piperidin-1-yl)-[1,3,5]triazine-2-amine] was more than 64 µg/mL; that for `Cc1cccc(Nc2nc(N3C[C@H](N)C[C@H](N)C3)nc(N3C[C@H](N)C[C@H](N)C3)n2)n1` [N-(6-methyl-pyridin-2-yl)-4,6-Bis-((3R,5S)-3,5-diamino-piperidin-1-yl)-[1,3,5]triazine-2-amine] was more than 64 µg/mL.
On the same count and under the same terms, the value for `N[C@@H]1C[C@H](N)CN(c2nc(Nc3nc4ccc([N+](=O)[O-])cc4s3)nc(N3C[C@H](N)C[C@H](N)C3)n2)C1` [N-(6-nitro-benzothiazol-2-yl)-4,6-Bis-((3R,5S)-3,5-diamino-piperidin-1-yl)-[1,3,5]triazine-2-amine] was less than 16 µg/mL.
`N[C@@H]1C[C@H](N)CN(c2nc(Nc3ccc(O)c4ncccc34)nc(N3C[C@H](N)C[C@H](N)C3)n2)C1` [N-(8-hydroxy-quinolin-5-yl)-4,6-Bis-((3R,5S)-3,5-diamino-piperidin-1-yl)-[1,3,5]triazine-2-amine]: the MIC is less than 16 µg/mL.
Still for that read-out and setting: in the case of `CCn1c2ccccc2c2cc(Nc3nc(N4C[C@H](N)C[C@H](N)C4)nc(N4C[C@H](N)C[C@H](N)C4)n3)ccc21` [N-(9-ethyl-9H-carbazol-3-yl)-4,6-Bis-((3R,5S)-3,5-diamino-piperidin-1-yl)-[1,3,5]triazine-2-amine] it was less than 64 µg/mL; in that of `N[C@@H]1C[C@H](N)CN(c2nc(Nc3ccc4c(c3)-c3ccccc3C4=O)nc(N3C[C@H](N)C[C@H](N)C3)n2)C1` [N-(9-oxo-9H-fluoren-3-yl)-4,6-Bis-((3R,5S)-3,5-diamino-piperidin-1-yl)-[1,3,5]triazine-2-amine], less than 16 µg/mL; in that of `N[C@@H]1C[C@H](N)CN(c2nc(Nc3ccc4c(c3)Cc3ccccc3-4)nc(N3C[C@H](N)C[C@H](N)C3)n2)C1` [N-(9H-fluoren-2-yl)-4,6-Bis-((3R,5S)-3,5-diamino-piperidin-1-yl)-[1,3,5]triazine-2-amine], less than 16 µg/mL.

The MIC is the smallest concentration in the dilution series that meets the test's criterion for growth inhibition.
